Experimental findings from US8232288B2, “Substituted benzimidazoles, benzothiazoles and benzoxazoles” (Gruenenthal GmbH, priority 2009, dated 2012) are described below.

Counter-ions that a name gives are not always drawn.

The target in assay [1] is T1, B1R receptor of the rat (rB1R) (Rattus norvegicus, UniProt P97583).
T1 construct: expressed in transfected cells; host or cells: CHO K1 cells
T1 sequence (P97583 1-337): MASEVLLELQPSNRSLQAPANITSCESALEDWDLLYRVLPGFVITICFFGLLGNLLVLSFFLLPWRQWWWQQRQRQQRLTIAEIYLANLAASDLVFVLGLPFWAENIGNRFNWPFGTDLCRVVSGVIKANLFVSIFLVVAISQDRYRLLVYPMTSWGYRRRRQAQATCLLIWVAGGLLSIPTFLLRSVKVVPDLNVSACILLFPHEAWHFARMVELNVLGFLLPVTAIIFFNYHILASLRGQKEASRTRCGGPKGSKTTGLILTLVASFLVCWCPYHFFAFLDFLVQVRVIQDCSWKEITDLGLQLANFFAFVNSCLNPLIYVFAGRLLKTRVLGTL
Kind of assay: Functional investigation on the bradykinin receptor 1 (B1R), FLIPR Ca2+ assay, rB1R cells. It is filed as cell-based. The method, boiled down: (§1)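 Stably transfected CHO K1 cells expressing human or rat B1R were loaded with Fluo-4, and Ca2+ fluorescence was read on a FLIPR. Compound (10 μM) was added first to measure activation. After 10–20 min, agonist at EC80 was added (Lys-Des-Arg9-bradykinin for hB1R, Des-Arg9-bradykinin for rB1R) to give % inhibition. IC50 values came from concentration series.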

Assay [2] concerns the target T2, human B1R receptor (hB1R) (Homo sapiens, UniProt P46663).
T2 construct: expressed in transfected cells; host or cells: CHO K1 cells
T2 sequence (P46663 1-353): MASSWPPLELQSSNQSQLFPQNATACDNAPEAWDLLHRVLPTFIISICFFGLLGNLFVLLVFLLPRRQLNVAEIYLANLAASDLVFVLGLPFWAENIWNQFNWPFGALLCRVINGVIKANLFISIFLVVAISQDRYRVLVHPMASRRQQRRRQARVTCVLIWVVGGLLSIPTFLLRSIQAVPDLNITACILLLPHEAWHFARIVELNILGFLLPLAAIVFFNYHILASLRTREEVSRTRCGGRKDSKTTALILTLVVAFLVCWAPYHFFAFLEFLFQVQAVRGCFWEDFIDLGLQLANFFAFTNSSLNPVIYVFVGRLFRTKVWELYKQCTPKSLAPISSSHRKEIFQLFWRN
Kind of assay: Functional investigation on the bradykinin receptor 1 (B1R), FLIPR Ca2+ assay, hB1R cells. It is filed as cell-based. A digest of the protocol: as §1

For `CN(Cc1nc2cccc(C(=O)N3CCC4(CC3)CCN(c3ccncc3)C4)c2[nH]1)C(=O)c1ccccc1Cl` [I_CC-08, 2-chloro-N-methyl-N-[[7-(3-pyridin-4-yl-3,8-diazaspiro[4.5]decane-8-carbonyl)-1H-benzoimidazol-2-yl]-methyl]-benzamide], the values for the inhibition at 10 µM in assay [1] and in assay [2] were 64% and 26%, respectively.
On the same counts, the results for `COc1cc(C)c(S(=O)(=O)N(C)C(C)c2nc3cccc(C(=O)N4CCC5(CCN(Cc6c(F)cccc6F)CC5)CC4)c3[nH]2)c(C)c1` (centres unmarked) [I_CC-29, N-[1-[7-[9-[(2,6-Difluoro-phenyl)-methyl]-3,9-diazaspiro[5.5]undecane-3-carbonyl]-1H-benzoimidazol-2-yl]-ethyl]-4-methoxy-N,2,6-trimethyl-benzenesulfonic acid amide] are 94% and 84%.
On the same counts, the results for `COc1cc(C)c(S(=O)(=O)N(C)C(C)c2nc3cccc(C(=O)N4CCC5(CC4)CCN(S(=O)(=O)c4ccc(F)c(C#N)c4)CC5)c3[nH]2)c(C)c1` (centres unmarked) [I_CC-58, N-[1-[7-[9-[(3-Cyano-4-fluoro-phenyl)sulfonyl]-3,9-diazaspiro[5.5]undecane-3-carbonyl]-1H-benzoimidazol-2-yl]-ethyl]-4-methoxy-N,2,6-trimethyl-benzenesulfonic acid amide] are 101% and 18%.
As to `Cc1ccc(Cl)c(S(=O)(=O)N(C)Cc2nc3cccc(C(=O)N4CCC5(CC4)CCN(c4ccncc4)CC5)c3[nH]2)c1Cl` [I_17, 2,6-dichloro-N,3-dimethyl-N-[[7-(9-pyridin-4-yl-3,9-diazaspiro[5.5]undecane-3-carbonyl)-1H-benzoimidazol-2-yl]-methyl]-benzenesulfonic acid amide], the inhibition at 10 µM turned out to be 24% in assay [1] and 95% in assay [2].
Turning to `COc1cc(C)c(S(=O)(=O)N(C)Cc2nc3cccc(C(=O)N4CCC5(CC4)CCN(c4ccncc4)C5)c3[nH]2)c(C)c1` [I_CC-06, 4-methoxy-N,2,6-trimethyl-N-[[7-(3-pyridin-4-yl-3,8-diazaspiro[4.5]decane-8-carbonyl)-1H-benzoimidazol-2-yl]-methyl]-benzenesulfonic acid amide], the inhibition at 10 µM worked out at 102% in assay [1] and 100% in assay [2].
Consider `O=C1c2c(Cl)cccc2CN1Cc1nc2cccc(C(=O)N3CCC4(CC3)CCN(c3ccncc3)CC4)c2[nH]1` [I_CC-12, 7-chloro-2-[[7-(3-pyridin-4-yl-3,9-diazaspiro[5.5]undecane-9-carbonyl)-1H-benzoimidazol-2-yl]-methyl]-2,3-dihydro-isoindol-1-one], for which the inhibition at 10 µM in assay [1] stood at 101%; in assay [2], 100%.
Consider `COc1cc(C)c(S(=O)(=O)N2CCCC2c2nc3cccc(C(=O)N4CCC5(CC4)CCN(c4ccncc4)CC5)c3[nH]2)c(C)c1` (centres unmarked) [I_19, [2-[1-[(4-methoxy-2,6-dimethyl-phenyl)sulfonyl]-pyrrolidin-2-yl]-3H-benzoimidazol-4-yl]-(9-pyridin-4-yl-3,9-diazaspiro[5.5]undecan-3-yl)-methanone], for which the inhibition at 10 µM in assay [1] was determined as 76%; in assay [2], 100%.
In the same order, the values of `COc1cc(C)c(S(=O)(=O)N(C)Cc2nc3cccc(C(=O)N4CCC5(CCC(N6CC(F)(F)C6)CC5)CC4)c3[nH]2)c(C)c1` [I_05, N-[[7-[9-(3,3-difluoro-azetidin-1-yl)-3-azaspiro[5.5]undecane-3-carbonyl]-1H-benzoimidazol-2-yl]-methyl]-4-methoxy-N,2,6-trimethyl-benzenesulfonic acid amide] are 72% and 55%.
Turning to `CN(Cc1nc2cccc(C(=O)N3CCC4(CC3)CCN(c3ccncc3)CC4)c2[nH]1)S(=O)(=O)c1ccc(OC(F)(F)F)cc1Cl` [I_11, 2-chloro-N-methyl-N-[[7-(9-pyridin-4-yl-3,9-diazaspiro[5.5]undecane-3-carbonyl)-1H-benzoimidazol-2-yl]-methyl]-4-(trifluoromethyloxy)-benzenesulfonic acid amide hydrochloride], the inhibition at 10 µM in assay [1] and in assay [2] was 99% each time.
On to `Cc1cccc(Cl)c1S(=O)(=O)N(C)Cc1nc2ccc(C(=O)N3CCC4(CC3)CCN(c3ccncc3)CC4)cc2[nH]1` [I_23, 2-chloro-N,6-dimethyl-N-[[6-(9-pyridin-4-yl-3,9-diazaspiro[5.5]undecane-3-carbonyl)-1H-benzoimidazol-2-yl]-methyl]-benzenesulfonic acid amide], for which the inhibition at 10 µM is 101% in assay [1] and 100% in assay [2].
On the same counts, the results for `CN(Cc1nc2cccc(C(=O)N3CCC4(CC3)CCN(c3ccncc3)CC4)c2[nH]1)S(=O)(=O)c1ccccc1C(F)(F)F` [I_08, N-methyl-N-[[7-(9-pyridin-4-yl-3,9-diazaspiro[5.5]undecane-3-carbonyl)-1H-benzoimidazol-2-yl]-methyl]-2-(trifluoromethyl)-benzenesulfonic acid amide] are 99% and 100%.
With `COc1cc(C)c(S(=O)(=O)N(C)C(C)c2nc3cccc(C(=O)N4CCC5(CCN(Cc6ccncc6)CC5)CC4)c3[nH]2)c(C)c1` (centres unmarked) [I_CC-27, 4-Methoxy-N,2,6-trimethyl-N-[1-[7-[9-(pyridin-4-yl-methyl)-3,9-diazaspiro[5.5]undecane-3-carbonyl]-1H-benzoimidazol-2-yl]-ethyl]-benzenesulfonic acid amide], the inhibition at 10 µM in assay [1] worked out at 92%; in assay [2], 90%.
With `COc1cc(C)c(S(=O)(=O)N(C)CCc2nc3ccc(C(=O)N4CCC5(CC4)CCN(c4ccncc4)CC5)cc3[nH]2)c(C)c1` [I_26, 4-methoxy-N,2,6-trimethyl-N-[2-[6-(9-pyridin-4-yl-3,9-diazaspiro[5.5]undecane-3-carbonyl)-1H-benzoimidazol-2-yl]-ethyl]-benzenesulfonic acid amide], the inhibition at 10 µM in assay [1] stood at 103%; in assay [2] it was 98%.
In the case of `COc1cc(C)c(S(=O)(=O)N(C)Cc2nc3cccc(C(=O)N4CCC5(CCN(c6ccncc6)CC5)C4)c3[nH]2)c(C)c1` [I_09, 4-methoxy-N,2,6-trimethyl-N-[[7-(8-pyridin-4-yl-3,8-diazaspiro[4.5]decane-3-carbonyl)-1H-benzoimidazol-2-yl]-methyl]-benzenesulfonic acid amide], the inhibition at 10 µM worked out at 104% in assay [1] and 99% in assay [2].
For `COc1cc(C)c(S(=O)(=O)N(C)C(C)c2nc3cccc(C(=O)N4CCC5(CC4)CCN(S(=O)(=O)c4ccc(Cl)s4)CC5)c3[nH]2)c(C)c1` (centres unmarked) [I_CC-56, N-[1-[7-[9-[(5-Chloro-thiophen-2-yl)sulfonyl]-3,9-diazaspiro[5.5]undecane-3-carbonyl]-1H-benzoimidazol-2-yl]-ethyl]-4-methoxy-N,2,6-trimethyl-benzenesulfonic acid amide], the inhibition at 10 µM in assay [1] turned out to be 101%; in assay [2], 15%.
With `COc1cc(C)c(S(=O)(=O)N(C)C(C)c2nc3cccc(C(=O)N4CCC5(CC4)CCN(C(=O)c4cc(C)nn4C(C)(C)C)CC5)c3[nH]2)c(C)c1` (centres unmarked) [I_CC-55, N-[1-[7-[9-(2-tert-Butyl-5-methyl-2H-pyrazole-3-carbonyl)-3,9-diazaspiro[5.5]undecane-3-carbonyl]-1H-benzoimidazol-2-yl]-ethyl]-4-methoxy-N,2,6-trimethyl-benzenesulfonic acid amide], the inhibition at 10 µM in assay [1] came out at 89%; in assay [2] it was 71%.
